Laboratory results published in the NIST ThermoML archive (doi:10.1021/je201211f).
± gives the expanded uncertainty stated by the source.

Experiments:
[1] = refractive index (Na D-line) (dimensionless); xn = mol fraction of the nth substance listed; conditions: 298.15 K, 101 kPa, Liquid
[2] = xn = mol fraction of the nth substance listed; conditions: 101 kPa, Liquid; for mass density: Vibrating tube method; for viscosity: Capillary tube (Ostwald / Ubbelohde) method

Cc1ccccc1C [1,2-dimethylbenzene] + CC(=O)O
[1]
Conditions	refractive index
x2 = 0.0852	1.4965 ± 0.0007
x2 = 0.1881	1.4875 ± 0.0007
x2 = 0.2447	1.4816 ± 0.0007
x2 = 0.3206	1.4747 ± 0.0007
x2 = 0.3894	1.4672 ± 0.0007
x2 = 0.4729	1.4579 ± 0.0007
x2 = 0.5569	1.4472 ± 0.0007
x2 = 0.636	1.4363 ± 0.0007
x2 = 0.7151	1.424 ± 0.0007
x2 = 0.8031	1.4099 ± 0.0007
x2 = 0.8817	1.3951 ± 0.0007
x2 = 0.9589	1.379 ± 0.0007

[2]
Conditions	mass density, 293.15 K [kg/m3]	mass density, 298.15 K [kg/m3]	mass density, 303.15 K [kg/m3]	viscosity, 298.15 K [mPa·s]
x2 = 0.0479	882.96 ± 0.33	878.72 ± 0.33	874.46 ± 0.33	–
x2 = 0.0852	–	–	–	0.7491 ± 0.0084
x2 = 0.1264	888.76 ± 0.33	884.42 ± 0.32	880.07 ± 0.32	–
x2 = 0.1881	–	–	–	0.7412 ± 0.0083
x2 = 0.2399	898.21 ± 0.31	893.74 ± 0.31	889.26 ± 0.31	–
x2 = 0.2447	–	–	–	0.7448 ± 0.0082
x2 = 0.2632	900.31 ± 0.31	895.82 ± 0.31	891.31 ± 0.31	–
x2 = 0.3036	904.17 ± 0.31	899.62 ± 0.31	895.06 ± 0.3	–
x2 = 0.3206	–	–	–	0.7457 ± 0.0081
x2 = 0.3894	–	–	–	0.7476 ± 0.0081
x2 = 0.4089	915.71 ± 0.3	911.04 ± 0.3	906.34 ± 0.3	–
x2 = 0.4323	918.49 ± 0.3	913.77 ± 0.3	909.03 ± 0.3	–
x2 = 0.4729	–	–	–	0.7532 ± 0.008
x2 = 0.479	924.47 ± 0.31	919.7 ± 0.3	914.91 ± 0.3	–
x2 = 0.5609	935.9 ± 0.32	930.9 ± 0.3	926.08 ± 0.28	–
x2 = 0.5694	–	–	–	0.7667 ± 0.008
x2 = 0.6332	947.71 ± 0.32	942.68 ± 0.3	937.66 ± 0.28	–
x2 = 0.6388	–	–	–	0.7838 ± 0.008
x2 = 0.7151	–	–	–	0.8113 ± 0.0081
x2 = 0.7184	964.07 ± 0.33	958.92 ± 0.3	953.75 ± 0.28	–
x2 = 0.7912	980.62 ± 0.34	975.33 ± 0.3	970.03 ± 0.27	–
x2 = 0.8031	–	–	–	0.8592 ± 0.0083
x2 = 0.8814	1005.53 ± 0.37	1000.08 ± 0.3	994.74 ± 0.25	–
x2 = 0.8817	–	–	–	0.9274 ± 0.0085
x2 = 0.9589	–	–	–	1.035 ± 0.009
x2 = 0.9652	1034.87 ± 0.31	1029.28 ± 0.31	1023.69 ± 0.31	–

Cc1cccc(C)c1 [1,3-dimethylbenzene] + CC(=O)O
[1]
Conditions	refractive index
x2 = 0.0962	1.4877 ± 0.0013
x2 = 0.1625	1.4829 ± 0.0013
x2 = 0.3223	1.4682 ± 0.0013
x2 = 0.3797	1.4616 ± 0.0013
x2 = 0.4773	1.4523 ± 0.0013
x2 = 0.557	1.4424 ± 0.0013
x2 = 0.6405	1.4319 ± 0.0013
x2 = 0.7182	1.421 ± 0.0012
x2 = 0.7955	1.4066 ± 0.0012
x2 = 0.8721	1.3931 ± 0.0012
x2 = 0.9649	1.3773 ± 0.0012

[2]
Conditions	mass density, 293.15 K [kg/m3]	mass density, 298.15 K [kg/m3]	mass density, 303.15 K [kg/m3]	viscosity, 298.15 K [mPa·s]
x2 = 0.0777	869.99 ± 0.33	865.62 ± 0.33	861.24 ± 0.33	–
x2 = 0.0962	–	–	–	0.5885 ± 0.0076
x2 = 0.1623	876.98 ± 0.33	872.54 ± 0.32	–	–
x2 = 0.1625	–	–	–	0.5929 ± 0.0076
x2 = 0.2143	881.73 ± 0.32	877.22 ± 0.32	872.69 ± 0.31	–
x2 = 0.2833	888.6 ± 0.32	884 ± 0.31	879.39 ± 0.31	–
x2 = 0.3223	–	–	–	0.6061 ± 0.0075
x2 = 0.35	895.97 ± 0.31	891.29 ± 0.31	886.59 ± 0.31	–
x2 = 0.3797	–	–	–	0.6144 ± 0.0075
x2 = 0.3896	900.67 ± 0.31	895.94 ± 0.31	891.18 ± 0.3	–
x2 = 0.4773	–	–	–	0.6308 ± 0.0075
x2 = 0.4801	912.73 ± 0.32	907.88 ± 0.3	903 ± 0.29	–
x2 = 0.557	–	–	–	0.6504 ± 0.0075
x2 = 0.5621	925.38 ± 0.32	920.41 ± 0.3	915.43 ± 0.29	–
x2 = 0.6204	935.7 ± 0.32	930.66 ± 0.3	925.59 ± 0.29	–
x2 = 0.6405	–	–	–	0.6798 ± 0.0076
x2 = 0.7182	–	–	–	0.7206 ± 0.0077
x2 = 0.7214	956.29 ± 0.35	951.08 ± 0.3	945.86 ± 0.26	–
x2 = 0.7955	–	–	–	0.7754 ± 0.0079
x2 = 0.8155	980.67 ± 0.34	975.31 ± 0.3	969.94 ± 0.27	–
x2 = 0.8721	–	–	–	0.8578 ± 0.0082
x2 = 0.8758	999.34 ± 0.36	993.89 ± 0.31	988.44 ± 0.26	–
x2 = 0.9649	–	–	–	1.023 ± 0.0089
x2 = 0.9672	1034.28 ± 0.31	1028.66 ± 0.31	1023.08 ± 0.31	–
